Target: T1, VcCA (α-class carbonic anhydrase from Vibrio cholerae) (Vibrio cholerae, UniProt Q9KMP6)
T1 construct: gene VC_A0274
Assay: stopped-flow CO2 hydration assay, Cheng-Prusoff
Assay type: biochemical
Conditions: read-out: KI * (nM) / VcCA; CO2 substrate, pH 7.4, 10 mM Hepes, 0.1 M NaClO4, 25 °C, 15 min pre-incubation

T1 sequence (Q9KMP6 21-239 limits assumed): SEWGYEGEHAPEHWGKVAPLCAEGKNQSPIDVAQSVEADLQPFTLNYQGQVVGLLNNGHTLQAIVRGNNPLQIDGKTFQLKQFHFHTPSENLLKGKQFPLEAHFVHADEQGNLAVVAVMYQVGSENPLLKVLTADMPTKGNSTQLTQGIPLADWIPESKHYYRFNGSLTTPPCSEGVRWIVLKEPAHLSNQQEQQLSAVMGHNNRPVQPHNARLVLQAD

SMILES	Ki
NS(=O)(=O)c1ccc2[nH]c(C(=O)NN=Cc3cccnc3)c(-c3ccccc3)c2c1 [compound 7, 7 (R = H, R1 = pyridin-3-yl)]	74.2 nM
CC(C)=NNC(=O)c1[nH]c2ccc(S(N)(=O)=O)cc2c1-c1ccccc1 [compound 12, 12 (R = CH3, R1 = CH3)]	22.8 nM
CN1CCC(=NNC(=O)c2[nH]c3ccc(S(N)(=O)=O)cc3c2-c2ccccc2)CC1 [compound 23, 23 (R/R1 = 1-methylpiperidin-4-yl)]	25.2 nM
NS(=O)(=O)c1ccc2[nH]c(C(=O)NN=Cc3cccs3)c(-c3ccccc3)c2c1 [compound 4, 4 (R = H, R1 = thiophen-2-yl)]	80.4 nM
NS(=O)(=O)c1ccc2[nH]c(C(=O)NN=C3CCC(c4ccccc4)CC3)c(-c3ccccc3)c2c1 (stereo not shown) [compound 21, 21 (R/R1 = 4-phenylcyclohexyl)]	52.1 nM
Cn1cccc1C=NNC(=O)c1[nH]c2ccc(S(N)(=O)=O)cc2c1-c1ccccc1 [compound 6, 6 (R = H, R1 = 1-CH3-pyrrol-2-yl)]	74.1 nM
CCCC1CCC(=NNC(=O)c2[nH]c3ccc(S(N)(=O)=O)cc3c2-c2ccccc2)CC1 (stereo not shown) [compound 20, 20 (R/R1 = 4-propylcyclohexyl)]	67.5 nM
CC(CC(C)C)=NNC(=O)c1[nH]c2ccc(S(N)(=O)=O)cc2c1-c1ccccc1 [compound 15, 15 (R = CH3, R1 = isobutyl)]	79.6 nM
CC(C)(C)C1CCC(=NNC(=O)c2[nH]c3ccc(S(N)(=O)=O)cc3c2-c2ccccc2)CC1 (stereo not shown) [compound 22, 22 (R/R1 = 4-tert-butylcyclohexyl)]	34.1 nM
NS(=O)(=O)c1ccc2[nH]c(C(=O)NN=C3CCCC3)c(-c3ccccc3)c2c1 [compound 16, 16 (R/R1 = cyclopentyl)]	68 nM
CC=NNC(=O)c1[nH]c2ccc(S(N)(=O)=O)cc2c1-c1ccccc1 [compound 11, 11 (R = H, R1 = CH3)]	27.1 nM
NS(=O)(=O)c1ccc2[nH]c(C(=O)NN=C3CCN(Cc4ccccc4)CC3)c(-c3ccccc3)c2c1 [compound 24, 24 (R/R1 = 1-benzylpiperidin-4-yl)]	92.4 nM
NS(=O)(=O)c1ccc2[nH]c(C(=O)NN=Cc3ccncc3)c(-c3ccccc3)c2c1 [compound 8, 8 (R = H, R1 = pyridin-4-yl)]	72.1 nM
NS(=O)(=O)c1ccc2[nH]c(C(=O)NN=Cc3c[nH]c4ccccc34)c(-c3ccccc3)c2c1 [compound 9, 9 (R = H, R1 = indol-3-yl)]	60.5 nM
CCC1CCC(=NNC(=O)c2[nH]c3ccc(S(N)(=O)=O)cc3c2-c2ccccc2)CC1 (stereo not shown) [compound 19, 19 (R/R1 = 4-ethylcyclohexyl)]	62.1 nM
CC1CCC(=NNC(=O)c2[nH]c3ccc(S(N)(=O)=O)cc3c2-c2ccccc2)CC1 (stereo not shown) [compound 18, 18 (R/R1 = 4-methylcyclohexyl)]	71.4 nM
NS(=O)(=O)c1ccc2[nH]c(C(=O)NN=C3CCCCC3)c(-c3ccccc3)c2c1 [compound 17, 17 (R/R1 = cyclohexyl)]	81.4 nM
C=NNC(=O)c1[nH]c2ccc(S(N)(=O)=O)cc2c1-c1ccccc1 [compound 10, 10 (R = H, R1 = H)]	46.6 nM
NS(=O)(=O)c1ccc2[nH]c(C(=O)NN=Cc3ccc(Br)s3)c(-c3ccccc3)c2c1 [compound 5, 5 (R = H, R1 = 5-Br-thiophen-2-yl)]	94.8 nM
